{
  "source": "paper PMC3849131",
  "about": "“^18 F-click labeling and preclinical evaluation of a new ^18 F-folate for PET imaging” (EJNMMI Research, 2013)",
  "key": {"KB tumor-bearing mice": {"test_system": "KB tumor-bearing mice", "experiment": "In vivo μPET imaging of KB tumor-bearing mice", "settings": "scan 60 to 90 min p.i., approximately 13 MBq", "experimental": "All animal experiments were approved by the local veterinary department and complied with Swiss and local laws on animal protection. Female CD-1 nude mice (Charles River, Sulzfeld, Germany) were fed with a folate-deficient rodent diet (Harlan Laboratories, Indianapolis, IN, USA). After an acclimatization period of 5 to 7 days, human KB tumor cells (5 × 10^6 cells in 0.1 mL sterile phosphate-buffered saline (PBS)) were inoculated subcutaneously on both shoulders of each mouse. Twelve days later, the animals were intravenously injected with [^18 F]12 (approximately 5 MBq, 100 μL). […] Animals were euthanized at the indicated time points, and selected organs and tissues were collected, weighed, and measured in a γ-counter. The incorporated radioactivity was expressed as percentage injected dose per gram (%ID/g) of tissue. PET/computed tomography (CT) experiments were performed with a dedicated small-animal PET/CT scanner (eXplore Vista PET/CT, Sedecal, Algete, Spain/GE Healthcare). Animals were intravenously injected with [^18 F]12 (approximately 13 MBq, 100 μL). For scanning, mice were anesthetized with isoflurane in an air/oxygen mixture. The PET scans were acquired from 60 to 90 min post-injection (p.i.) followed by a CT. After acquisition, PET data were reconstructed in user-defined time frames, and the fused datasets of PET and CT were analyzed with PMOD software (version 3.4). […]"}, "[1]": {"experiment": "Relative lipophilicity (capacity factor k’) by reversed-phase HPLC", "assay_type": "physicochemical", "settings": "methanol-phosphoric acid buffer eluent, pH 2", "experimental": "The relative lipophilicity of 6 was determined as capacity factor k’ (k’ = (tretention - tsolvent) / tsolvent) by reversed-phase HPLC using a methanol-phosphoric acid buffer eluent system at pH 2. […] This method has already been described elsewhere. The capacity factor k’ (k’ = (tretention - tsolvent) / tsolvent) was determined using reversed-phase HPLC and enables different (radio)folates to be compared based on their polarity. The values determined can be used to give hint to the in vivo behavior in terms of the degree of hepatobiliary excretion by comparison with literature examples."}, "[2]": {"experiment": "In vitro metabolite/stability study in fetal calf serum", "assay_type": "in vitro ADME", "settings": "FCS, 37°C, 15, 30, 60 and 90 min", "experimental": "A solution of [^18 F]12 (50 μL, approximately 5 MBq) was incubated with 500 μL of fetal calf serum (FCS) at 37°C and the mixture shaken at 900 rpm. The time points were set between 0 and 90 min using 500 μL of FCS and 50 μL of the radiotracer for each time point. Plasma proteins were precipitated by addition of cold acetonitrile (300 μL), followed by centrifugation (10,000 rpm, 10 min). An aliquot of each time point (15, 30, 60, and 90 min, 100 μL) was injected into the analytical radio-HPLC system for analytics.\nThe stability of the new radiotracer, [^18 F]12, was evaluated in the presence of FCS. For this purpose, [^18 F]12 was added to FCS and incubated at 37°C. At certain time points (15, 30, 60, and 90 min), aliquots were extracted and proteins removed by precipitation. The integrity of the radiotracer was determined by analytical radio-HPLC."}},
  "data": [
    {"substance": "16-(4-(((2-amino-4-oxo-3,4-dihydropteridin-6-yl)methyl)amino)benzamido)-1-(4-(2-(2-(2-[^18 F]fluoroethoxy)ethoxy)ethoxy)-1H-1,2,3-triazol-1-yl)-13-oxo-3,6,9-trioxa-12-azaheptadecan-17-oic acid [[^18 F]12]", "values": [
      {"measurement": "tumor visualization in μPET", "setting": "KB tumor-bearing mice", "value": "facilitated visualization of FR-positive tumors on the maximum intensity projection"},
      {"measurement": "capacity factor k’", "setting": "[1]", "value": 1.12},
      {"measurement": "stability in fetal calf serum (radio-HPLC)", "setting": "[2]", "value": "No degradation or defluorination"}
    ]}
  ]
}
